Measured values as given in US20230250096A1, “SUBSTITUTED PHENYL-1H-PYRROLO[2,3-c] PYRIDINE DERIVATIVES” (Janssen Pharmaceutica NV, priority 2021, published 2023).

Legend:
[1] = test system: MEIS1 mRNA expression; assay: MEIS1 mRNA expression assay (Quantigene Singleplex) in MOLM14 cells; format: cell-based, human; details: 48 hours incubation
Outline: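 MOLM14 cells, 3,750/well, exposed to increasing compound concentrations for 48 h. MEIS1 mRNA measured by QuantiGene Singleplex branched-DNA hybridization (lysis 45 min, hybridization 18–22 h, both 55 °C), normalized to RPL28. IC50 fitted to background-corrected fold change versus DMSO.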

[2] = biological target: T1, menin/MLL (terbium chelate-labeled menin, FITC-MBM1 peptide) (Homo sapiens, UniProt O00255, T541A); assay: Menin/MLL homogenous time-resolved fluorescence (HTRF) assay; format: binding; details: 30 min incubation
T1 construct: Menin (a.a 1-610-6xhis tag, 2.3 mg/mL in 20 mM Hepes)
T1 sequence (O00255 with tags, fused parts or gaps T541A): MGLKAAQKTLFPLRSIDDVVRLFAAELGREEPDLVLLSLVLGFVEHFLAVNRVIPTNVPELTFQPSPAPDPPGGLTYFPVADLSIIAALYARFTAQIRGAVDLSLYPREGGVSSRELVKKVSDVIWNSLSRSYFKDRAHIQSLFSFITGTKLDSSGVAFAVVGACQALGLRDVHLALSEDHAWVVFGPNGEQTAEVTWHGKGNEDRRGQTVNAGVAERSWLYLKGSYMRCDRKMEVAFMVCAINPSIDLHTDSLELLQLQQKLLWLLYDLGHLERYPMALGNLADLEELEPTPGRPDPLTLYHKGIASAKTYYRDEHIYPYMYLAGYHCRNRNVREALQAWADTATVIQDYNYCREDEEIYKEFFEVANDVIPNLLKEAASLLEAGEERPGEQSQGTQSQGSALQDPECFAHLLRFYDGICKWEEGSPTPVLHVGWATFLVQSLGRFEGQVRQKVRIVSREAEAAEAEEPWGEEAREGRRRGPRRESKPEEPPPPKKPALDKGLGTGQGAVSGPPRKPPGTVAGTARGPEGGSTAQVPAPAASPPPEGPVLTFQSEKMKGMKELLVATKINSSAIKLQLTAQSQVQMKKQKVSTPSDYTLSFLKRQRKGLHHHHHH
Outline: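 Terbium-labeled menin (a.a. 1-610, His-tagged; […]) pre-incubated 30 min with compound, then 75 nM FITC-MBM1 peptide added for 15 min at ambient temperature in Tris pH 7.5 buffer, 0.5% DMSO. HTRF 520/490 nm ratio read; IC50 from 11-point four-fold titrations, typically from 10 μM.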

SMILES	IC50 [1] [nM]	IC50 [2] [nM]	IC50 ([1]; Homo sapiens, MOLM-14, 48 h) [nM]
Cc1cncc2c1c(C[C@@H]1CCN(CC3CCOCC3)C1)cn2-c1ccc(F)cc1C(=O)N1CCCC1C(C)O (single isomer, unassigned) [Compound 363b]	~174	0.093	–
CNC(=O)[C@H]1CC[C@@H](CN2CC[C@H](Cc3cn(-c4ccc(F)cc4C(=O)N(C)C(C)C)c4cncc(C)c34)C2)CC1 [Compound 236]	–	0.086	~98.9
Cc1noc(CN2CC(Cc3cn(-c4ccc(F)cc4C(=O)N(C)C(C)C)c4cncc(C)c34)C2)n1 [Compound 308]	–	60.2	> 1000
CC(=O)N1CC2CC1CC2N1CC[C@@H](Cc2cn(-c3ccc(F)cc3C(=O)N(C)C(C)C)c3cncc(C)c23)C1 (stereo partly drawn) [Compound 223]	–	0.239	279
CCC([C@H]1C[C@@H](N2C[C@H]3CN(C(C)=O)C[C@@H]3C2)C1)N1CC[C@H](Cc2cn(-c3ccc(F)cc3C(=O)N(C)C(C)C)c3cncc(C)c23)C1 (mixture of isomers) [Compound 23]	–	0.07	7
Cc1cncc2c1c(CC1CN(CC3CCOCC3)C1)cn2-c1ccc(F)cc1C(=O)N(C)C1(CO)CC1 [Compound 277]	–	0.481	~502
COC(=O)N1CCC(CN2CC[C@@H](Cc3cn(-c4ccc(F)cc4C(=O)N(CCO)C(C)C)c4cncc(C)c34)C2)CC1 [Compound 334]	–	0.224	12
Cc1cncc2c1c(CC1CN(CC3CCOCC3)C1)cn2-c1ccc(F)cc1C(=O)N(CCO)C1CC1 [Compound 278]	–	0.323	342
CC(=O)NC1CCC(N2CC[C@H](Cc3cn(-c4ccc(F)cc4C(=O)N(C)C(C)C)c4cncc(C)c34)C2)CC1 (stereo partly drawn) [Compound 210]	> 1000	0.602	–
Cc1cncc2c1c(CC1CN(CC(=O)N3CCC(F)(F)C3)C1)cn2-c1ccc(F)cc1C(=O)N(C)C(C)C [Compound 96]	–	4.57	3690
CC(=O)N1C[C@@H]2CN([C@H]3C[C@@H](CN4CC[C@@H](Cc5cn(-c6ccc(F)cc6C(=O)N(C)C(C)C)c6cncc(C)c56)C4)C3)C[C@H]2C1 (single isomer, unassigned) [Compound 30]	–	~0.49	> 1000
CC(=O)N1CCN(CCC[C@@H](C(C)C)N2CC[C@H](Cc3cn(-c4ccc(F)cc4C(=O)N(C)C(C)C)c4cncc(C)c34)C2)CC1 (single isomer, unassigned) [Compound 9b]	–	0.975	42
Cc1cncc2c1c(CC1CN([C@@H](C(C)C)[C@H]3C[C@H](N4CCC(S(C)(=O)=O)CC4)C3)C1)cn2-c1ccc(F)cc1C(=O)N(C)C(C)C [Compound 33b]	–	0.03	23
CC(=O)N1CC2CC(CN3CC[C@@H](Cc4cn(-c5ccc(F)cc5C(=O)N(CC(C)O)C(C)C)c5cncc(C)c45)C3)CC(C2)C1 (stereo partly drawn) [Compound 350]	–	0.583	~1000
CCNC(=O)[C@H]1CC[C@H](CN2CC(Cc3cn(-c4ccc(F)cc4C(=O)N(C)C(C)C)c4cncc(C)c34)C2)CC1 [Compound 143]	–	0.064	5
Cc1cncc2c1c(CC1CN(CC3CNCC(=O)C3)C1)cn2-c1ccc(F)cc1C(=O)N(C)C(C)C (stereo not drawn) [Compound 196]	–	0.19	438
CC(=O)N1CCC([C@@H](C)N2CC[C@@H](Cc3cn(-c4ccc(F)cc4[S@@](=N)(=O)C(C)C)c4cncc(C)c34)C2)CC1 (single isomer, unassigned) [Compound 231a]	–	0.311	52
CC(=O)N1CCCC(N2CC[C@@H](Cc3cn(-c4ccc(F)cc4C(=O)N(C)C(C)C)c4cncc(C)c34)C2)C1 (mixture of isomers) [Compound 215]	–	0.291	299
CC(=O)N1CC2C(CN3CC(Cc4cn(-c5ccc(F)cc5C(=O)N(C)C(C)C)c5cncc(C)c45)C3)C2C1 (stereo not drawn) [Compound 305]	–	0.146	~297
CCN(C(=O)c1cc(F)ccc1-n1cc(C[C@@H]2CCN(CC3CCOCC3)C2)c2c(C)cncc21)C(C)C [Compound 257]	–	0.031	7
Cc1cncc2c1c(C[C@@H]1CCN(CC3CCN(C(=O)C(C)C)CC3)C1)cn2-c1ccc(F)cc1C(=O)N(C[C@@H](C)O)C(C)C [Compound 331]	–	0.117	29
